# Source: patent US20060270591A1, “Androgen receptor coregulators” (priority 2002, published 2006)
# Tests used:
# p27^KIP1 = assay: Western blot of p27KIP1 in PC-3(AR2) cells; format: cell-based, human; settings: 10 nM DHT
# Experimental: 41. […] (A) C2C12, COS-1, DU145 and PC-3 cell lines were co-transfected with 30 ng pSG5-AR, 0.5 μg MMTV-Luc, 1 ng pRL-SV40, various amounts of pSG5-bSV as indicated, and adjusted to total amount of 2 μg DNA with pSG5. The assay method was the same as FIG. 2. After measuring the luciferase activity, values relative to lane 1 were calculated. Results are the mean±S.D. of three independent experiments. (B) PC-3 was co-transfected with 30 ng pSG5-AR, 1.5 μg pSG5-bSV, 1 ng pRL-SV40, and 0.5 μg reporter gene as indicated by using SuperFect. […] (C) PC-3(AR2) cell line was transfected with EGFP or EGFP-bSV expressing vector using SuperFect. […] Proteins extracted from cells were loaded on 15% SDS-PAGE and analyzed by western blotting. The intensity of each p27 band was quantified and normalized with control protein which is a non-specific band pick up by the antibody in the same blot. The relative intensities to lane 1 were calculated.
# 478. Protein samples extracted from the cell were separated on 15% SDS-PAGE and transferred to nitrocellulose membranes. Membranes were incubated 1 h with 5% non-fat milk in TBST at room temperature, followed by the antibodies against p27^(KIP1) (Santa Cruz), followed by AP conjugated goat-antimouse antibody. Blots were developed using the AP developing reagent from Bio-Rad. Band intensity was quantitated by Collage® image analysis software (Fotodyne Inc.).
# GR = target: T1, GR (Homo sapiens, UniProt P04150); assay: GR transactivation reporter assay with SV; format: cell-based; design: expressed in transfected cells; host or cells: DU145, PC-3, HepG2; settings: MMTV-Luc; compared to AR
# T1 sequence (P04150 1-777): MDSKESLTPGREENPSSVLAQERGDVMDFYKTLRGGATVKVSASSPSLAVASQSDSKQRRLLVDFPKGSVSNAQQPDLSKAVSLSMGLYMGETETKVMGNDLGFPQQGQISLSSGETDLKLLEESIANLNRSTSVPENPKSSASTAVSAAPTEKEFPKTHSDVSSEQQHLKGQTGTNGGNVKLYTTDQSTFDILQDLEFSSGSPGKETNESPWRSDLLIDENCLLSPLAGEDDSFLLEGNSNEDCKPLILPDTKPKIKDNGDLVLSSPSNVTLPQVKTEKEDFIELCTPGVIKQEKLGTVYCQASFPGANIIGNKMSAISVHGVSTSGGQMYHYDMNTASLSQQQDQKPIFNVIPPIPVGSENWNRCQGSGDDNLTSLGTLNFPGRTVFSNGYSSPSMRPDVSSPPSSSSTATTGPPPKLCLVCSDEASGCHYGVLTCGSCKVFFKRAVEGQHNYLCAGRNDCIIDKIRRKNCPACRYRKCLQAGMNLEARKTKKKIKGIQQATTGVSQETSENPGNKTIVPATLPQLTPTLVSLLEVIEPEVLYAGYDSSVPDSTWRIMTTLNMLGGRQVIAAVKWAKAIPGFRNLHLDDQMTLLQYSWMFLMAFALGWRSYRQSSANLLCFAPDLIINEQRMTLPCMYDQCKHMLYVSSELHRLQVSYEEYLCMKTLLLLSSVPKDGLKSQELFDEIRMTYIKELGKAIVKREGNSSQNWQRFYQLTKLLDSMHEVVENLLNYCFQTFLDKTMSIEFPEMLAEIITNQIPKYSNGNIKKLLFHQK
# Experimental: 42. […] (A) The interaction of SV with AR, GR, PPAR-γ and ER-α is tested in mammalian two-hybrid assay. One μg plasmids expressing Gal4(DBD)-AR, GR, PPAR-γ or ER-α was co-transfected with 4 μg plasmids expressing VP16 or VP16-SVn to COS-1 cells. […] The assay method was the same as described in FIG. 29. Relative activities of ligand treatment to EtOH treatment are shown. (B) The coactivation function of SV in different receptors was assayed using reporter gene study. MMTV-Luc, PPRE-Luc, ERE-Luc are the reporter genes for AR, GR, PPAR-γ, and ER-α respectively. Lanes 1, 5, 9 and 13 are regarded as 1 fold in each panel.
# 475. In AR transactivation activity assays, transfections were performed using SuperFect (Qiagen, Chatsworth, Calif.) following protocols described in manual provided by Qiagen. Briefly, cells were plated on 35 mm dishes and after 24 h were transfected using the SuperFect kit. The total DNA amount was adjusted to 2 μg with pSG5 or pEGFP vectors. The medium was changed to DMEM with 10% CD-FBS 2 h after transfection. After 24 h, the DMEM with 10% CD-FBS was changed again, and the cells were treated with various steroids. Cells were harvested after 24 h for dual-luciferase assay as described in protocol provided by Promega. At least three independent experiments were carried out in each case.
substance,measurement,setting,value
"SV: supervillin, 205 kDa actin binding protein; bovine SV (a.a. 1-1792) used in reporter assays",p27^(KIP1) protein expression,p27^KIP1,further enhanced p27^(KIP1) protein expression
same,effect on the transactivation of GR,GR,less enhancement effect
